According to ChEMBL document CHEMBL1201862, “PubChem BioAssay data set” (2004):
Activity calls are given as the source filed them.

Legend:
[1] = target: Beta Lactamase (Pseudomonas aeruginosa, UniProt Q932Y6); assay: BLA reporter interference, concentration series – BLA reporter cells, FRET fluorescence, artefact control for NOD2-RIPK2 interaction inhibitor project, dose response (AID 651552); type: functional, cell-based
[2] = blockade of melanocortin 4 receptor signaling – cell-based, plate reader, cherry pick, counter-screen for LGR2 antagonist project, dose response (AID 743444); type: functional;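 also: transfected HEK 293 cells stimulated with alpha-MSH peptide; potency of inhibitors of the alpha-MSH evoked signal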
[3] = viability loss in HeLa cells – cytotoxicity control for MgcRacGAP inhibitor project, dose response (AID 624300); type: functional
[4] = target: Phosphoethanolamine/phosphocholine phosphatase (Homo sapiens, UniProt Q8TCT1); assay: SAR assay for compounds that inhibit PHOSPHO1. [Related pubchem assays (depositor defined):AID1545, AID1565, AID1574]
[5] = Fluorescence-based cell-based high throughput dose response assay for inhibitors of the interaction of nucleotide-binding oligomerization domain containing 2 (NOD2) and the receptor-interacting serine-threonine kinase 2 (RIPK2).; type: functional; conditions: Homo sapiens
[6] = target: T1, Rac GTPase-activating protein 1 (Homo sapiens, UniProt Q9H0H5); assay: blockers of MgcRacGAP-driven Rac1 GTP hydrolysis – biochemical, ADP Hunter fluorescence, primary and confirmatory, confirmation (AID 624330); type: functional
T1 sequence (Q9H0H5 whole entry): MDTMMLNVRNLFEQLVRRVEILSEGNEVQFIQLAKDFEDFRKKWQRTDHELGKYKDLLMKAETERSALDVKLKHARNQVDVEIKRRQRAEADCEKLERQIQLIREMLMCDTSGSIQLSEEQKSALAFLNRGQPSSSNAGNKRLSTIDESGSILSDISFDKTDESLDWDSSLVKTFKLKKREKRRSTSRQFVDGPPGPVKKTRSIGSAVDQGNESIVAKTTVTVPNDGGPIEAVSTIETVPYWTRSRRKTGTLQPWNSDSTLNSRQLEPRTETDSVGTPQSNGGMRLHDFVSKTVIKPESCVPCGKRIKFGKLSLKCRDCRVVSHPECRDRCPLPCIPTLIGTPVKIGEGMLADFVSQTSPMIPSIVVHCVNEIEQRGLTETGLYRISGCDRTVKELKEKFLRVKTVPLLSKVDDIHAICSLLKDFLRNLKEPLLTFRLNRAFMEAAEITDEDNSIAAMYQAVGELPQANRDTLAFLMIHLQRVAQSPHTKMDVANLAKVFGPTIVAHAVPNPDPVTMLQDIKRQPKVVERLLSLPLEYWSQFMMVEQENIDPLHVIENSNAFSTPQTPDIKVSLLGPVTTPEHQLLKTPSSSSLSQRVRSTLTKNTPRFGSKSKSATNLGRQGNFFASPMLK

[7] = blockers of bursicon-stimulated LGR2 cAMP reporter – cell-based, HEK293, CRE-luciferase reporter, cherry pick, set 2, dose response (AID 743343); type: functional;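 also: transfected cells were stimulated with diluted bursicon conditioned medium after compound addition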
[8] = target: T2, Alkaline phosphatase, tissue-nonspecific isozyme (Homo sapiens, UniProt P05186); assay: potency against alkaline phosphatase TNAP – biochemical, luminescent, dose response, SAR follow-up (AID 1056)
T2 sequence (P05186 whole entry): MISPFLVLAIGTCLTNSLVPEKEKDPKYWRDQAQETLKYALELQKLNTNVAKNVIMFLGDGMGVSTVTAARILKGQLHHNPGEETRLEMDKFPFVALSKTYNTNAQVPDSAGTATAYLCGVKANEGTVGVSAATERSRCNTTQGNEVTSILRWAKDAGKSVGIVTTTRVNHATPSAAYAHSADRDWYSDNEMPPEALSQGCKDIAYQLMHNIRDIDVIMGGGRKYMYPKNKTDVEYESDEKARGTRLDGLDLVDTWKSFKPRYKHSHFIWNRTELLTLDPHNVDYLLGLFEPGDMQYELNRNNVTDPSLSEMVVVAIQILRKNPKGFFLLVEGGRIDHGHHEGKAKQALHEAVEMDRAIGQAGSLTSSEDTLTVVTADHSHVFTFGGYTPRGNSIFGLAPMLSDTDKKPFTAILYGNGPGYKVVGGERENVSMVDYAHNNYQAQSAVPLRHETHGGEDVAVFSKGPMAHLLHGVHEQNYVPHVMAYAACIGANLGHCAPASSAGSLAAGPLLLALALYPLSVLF

[9] = target: DNA dC->dU-editing enzyme APOBEC-3G (Homo sapiens, UniProt Q9HC16); assay: Dose Response confirmation of small molecule APOBEC3G DNA Deaminase Inhibitors via a fluorescence-based single-stranded DNA deaminase assay. [Related pubchem assays (depositor defined):AID493012, AID493028]; type: functional
[10] = target: G-protein coupled receptor 55 (Homo sapiens, UniProt Q9Y2T6); assay: selective activators of receptor GPR55 – imaging, U2OS cells, beta-arrestin-GFP redistribution, primary screen (AID 1961); type: functional
[11] = target: Eukaryotic translation initiation factor 4E (Mus musculus, UniProt P63073); assay: blockers of eIF4G binding by eIF4E – biochemical, TR-FRET, dose response (AID 855); type: functional;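 also: potency for disrupting eIF4E binding to eIF4GI seen as loss of FRET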
[12] = target: E3 ubiquitin-protein ligase XIAP (Homo sapiens, UniProt P98170); assay: Counter Screen using XIAP-Bir3 for Chemical Antagonists of Bir1/2 domains of IAP-family anti-apoptotic proteins. [Related pubchem assays (depositor defined):AID1018, AID1449, AID1514, AID1638, AID1749, AID1750, AID488957, AID488963]
[13] = Luminescence Cell-Based Dose Retest to Confirm Inhibitors of Cancer Stem Cells. [Related pubchem assays (depositor defined):AID2717, AID2721]; type: functional; conditions: Homo sapiens
[14] = tested on: Streptococcus; assay: GAS UMAA2166 growth inhibition – luminescence, BacTiterGlo, counter-screen for streptokinase expression inhibitor project, dose response (AID 1915); type: functional, organism-based;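 also: potency for reduction of bacterial viability or growth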
[15] = THP-1 cell cytotoxicity, dose response, cytotoxicity control for non-replicating M. tuberculosis project (AID 489025); type: functional
[16] = Vero E6 cell cytotoxicity, dose response, cytotoxicity control for non-replicating M. tuberculosis project, secondary assay (AID 492998); type: functional, VeroE6; conditions: Vero C1008
[17] = tested on: Streptococcus sp. 'group A'; assay: Streptococcus pyogenes SK(-)GAS viability under kanamycin – luminescence, BacTiterGlo, confirmation, counter-screen for streptokinase expression inhibitor project, dose response (AID 1900); type: functional, organism-based
[18] = target: T3, Streptokinase A (Streptococcus pyogenes serotype M1, UniProt P10520); assay: viability-normalized secreted streptokinase activity reduction – plasminogen activation absorbance, OD405, dose response (AID 1914); type: functional, Streptococcus pyogenes M1 GAS;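 also: secreted streptokinase activity via plasminogen activation per viability signal from cell pellet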
T3 sequence (P10520 whole entry): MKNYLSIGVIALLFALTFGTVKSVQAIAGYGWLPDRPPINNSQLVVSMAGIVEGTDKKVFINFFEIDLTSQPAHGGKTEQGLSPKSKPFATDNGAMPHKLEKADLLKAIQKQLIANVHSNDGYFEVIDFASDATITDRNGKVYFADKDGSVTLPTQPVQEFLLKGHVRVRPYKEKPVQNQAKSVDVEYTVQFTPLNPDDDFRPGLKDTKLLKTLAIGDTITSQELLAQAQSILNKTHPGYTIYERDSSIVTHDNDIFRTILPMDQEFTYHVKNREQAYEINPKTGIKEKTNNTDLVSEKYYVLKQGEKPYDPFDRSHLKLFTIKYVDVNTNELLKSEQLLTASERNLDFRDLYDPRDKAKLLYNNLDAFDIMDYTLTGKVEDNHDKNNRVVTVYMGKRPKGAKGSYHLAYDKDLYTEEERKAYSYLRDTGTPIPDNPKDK

[19] = cells; type: functional
[20] = target: Dual specificity protein phosphatase 3 (Homo sapiens, UniProt P51452); assay: SAR VHR1 Fluorescent Assay for In Vitro dose response studies Set 2. [Related pubchem assays (depositor defined):AID1654, AID1661, AID1878]; type: functional
[21] = target: T4, Tyrosine-protein phosphatase non-receptor type 7 (Homo sapiens, UniProt P35236); assay: SAR analysis of chemical inhibitors of HePTP using a Fluorescent assay - Set 2. [Related pubchem assays (depositor defined):AID1059, AID1077, AID1661, AID2085, AID521]; type: functional
T4 sequence (P35236 whole entry): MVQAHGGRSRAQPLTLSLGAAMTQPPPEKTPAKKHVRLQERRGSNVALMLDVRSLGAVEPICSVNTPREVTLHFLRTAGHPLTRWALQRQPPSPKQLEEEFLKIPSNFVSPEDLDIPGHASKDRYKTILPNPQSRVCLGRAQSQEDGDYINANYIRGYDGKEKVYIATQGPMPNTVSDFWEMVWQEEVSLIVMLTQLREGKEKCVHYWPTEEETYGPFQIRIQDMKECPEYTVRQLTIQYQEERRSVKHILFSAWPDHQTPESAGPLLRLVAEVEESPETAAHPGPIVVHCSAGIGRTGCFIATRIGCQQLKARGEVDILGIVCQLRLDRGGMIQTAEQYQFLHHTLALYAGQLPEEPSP

Sequence of DNA dC->dU-editing enzyme APOBEC-3G (Q9HC16 whole entry): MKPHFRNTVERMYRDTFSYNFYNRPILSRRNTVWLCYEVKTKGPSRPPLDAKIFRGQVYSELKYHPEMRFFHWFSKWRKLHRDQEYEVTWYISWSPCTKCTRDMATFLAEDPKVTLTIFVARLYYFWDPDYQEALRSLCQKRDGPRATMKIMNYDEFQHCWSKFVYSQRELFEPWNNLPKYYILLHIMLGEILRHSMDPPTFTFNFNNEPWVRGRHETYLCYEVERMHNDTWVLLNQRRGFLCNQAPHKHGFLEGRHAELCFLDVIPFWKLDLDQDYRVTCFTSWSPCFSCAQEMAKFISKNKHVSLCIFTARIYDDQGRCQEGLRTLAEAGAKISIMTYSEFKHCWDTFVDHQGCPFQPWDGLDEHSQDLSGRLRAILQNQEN
Sequence of Beta Lactamase (Q932Y6 whole entry): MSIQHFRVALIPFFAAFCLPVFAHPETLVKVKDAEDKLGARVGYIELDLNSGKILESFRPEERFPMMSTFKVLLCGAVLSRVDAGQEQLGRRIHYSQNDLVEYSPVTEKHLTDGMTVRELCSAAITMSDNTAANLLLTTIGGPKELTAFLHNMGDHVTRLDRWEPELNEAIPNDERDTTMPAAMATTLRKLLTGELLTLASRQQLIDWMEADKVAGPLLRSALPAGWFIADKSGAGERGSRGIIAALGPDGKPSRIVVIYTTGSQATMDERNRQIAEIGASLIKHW
Sequence of Eukaryotic translation initiation factor 4E (P63073 whole entry): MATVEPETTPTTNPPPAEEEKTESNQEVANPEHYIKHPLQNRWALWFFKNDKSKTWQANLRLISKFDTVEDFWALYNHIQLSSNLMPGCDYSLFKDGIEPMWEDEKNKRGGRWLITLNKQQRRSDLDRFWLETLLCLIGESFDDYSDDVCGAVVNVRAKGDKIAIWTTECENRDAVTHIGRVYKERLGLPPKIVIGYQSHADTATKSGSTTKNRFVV
Sequence of Dual specificity protein phosphatase 3 (P51452 whole entry): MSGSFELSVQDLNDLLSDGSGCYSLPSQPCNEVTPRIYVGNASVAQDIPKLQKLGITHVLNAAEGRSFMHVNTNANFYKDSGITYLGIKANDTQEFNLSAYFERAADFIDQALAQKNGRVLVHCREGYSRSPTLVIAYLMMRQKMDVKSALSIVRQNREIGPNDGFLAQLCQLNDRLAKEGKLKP
Sequence of Phosphoethanolamine/phosphocholine phosphatase (Q8TCT1 whole entry, the tested form may be a part): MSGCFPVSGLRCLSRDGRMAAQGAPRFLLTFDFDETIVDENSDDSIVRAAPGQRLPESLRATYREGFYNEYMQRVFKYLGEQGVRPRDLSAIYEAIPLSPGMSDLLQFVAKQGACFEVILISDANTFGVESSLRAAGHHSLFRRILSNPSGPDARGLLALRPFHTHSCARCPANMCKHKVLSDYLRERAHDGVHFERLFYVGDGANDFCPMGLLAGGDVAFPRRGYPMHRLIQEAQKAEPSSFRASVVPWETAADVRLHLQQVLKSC
Sequence of G-protein coupled receptor 55 (Q9Y2T6 whole entry): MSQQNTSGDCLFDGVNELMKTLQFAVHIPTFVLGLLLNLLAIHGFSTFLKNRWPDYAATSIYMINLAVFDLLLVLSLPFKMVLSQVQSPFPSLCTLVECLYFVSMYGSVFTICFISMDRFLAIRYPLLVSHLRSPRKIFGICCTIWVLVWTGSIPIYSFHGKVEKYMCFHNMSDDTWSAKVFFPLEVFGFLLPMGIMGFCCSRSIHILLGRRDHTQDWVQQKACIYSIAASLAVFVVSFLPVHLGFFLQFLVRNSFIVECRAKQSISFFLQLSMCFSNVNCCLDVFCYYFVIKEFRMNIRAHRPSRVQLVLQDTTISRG
Sequence of E3 ubiquitin-protein ligase XIAP (P98170 whole entry): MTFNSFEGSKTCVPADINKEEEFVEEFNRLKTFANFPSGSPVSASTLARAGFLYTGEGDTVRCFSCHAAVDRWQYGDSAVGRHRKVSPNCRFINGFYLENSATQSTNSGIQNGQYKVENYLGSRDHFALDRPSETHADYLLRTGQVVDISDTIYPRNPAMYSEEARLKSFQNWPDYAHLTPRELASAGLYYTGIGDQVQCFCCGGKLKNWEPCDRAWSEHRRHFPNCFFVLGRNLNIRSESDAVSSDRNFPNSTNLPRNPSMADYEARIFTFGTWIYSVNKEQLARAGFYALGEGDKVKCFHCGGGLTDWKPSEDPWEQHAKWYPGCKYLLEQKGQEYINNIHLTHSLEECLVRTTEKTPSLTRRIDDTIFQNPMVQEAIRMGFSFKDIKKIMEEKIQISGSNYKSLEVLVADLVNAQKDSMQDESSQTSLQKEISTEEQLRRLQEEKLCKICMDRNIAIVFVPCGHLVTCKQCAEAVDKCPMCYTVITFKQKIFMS

## COc1ccc(-n2sc3ccc(F)cc3c2=O)cc1
[1]
  IC50: 19.9 µM (inactive)
[2]
  AC50: 5.92 µM (active)
[3]
  CC50: 100 µM (active)
[4]
  IC50: 6.67 µM (inactive)
[5]
  IC50: 5.42 µM (active)
[6]
  IC50: 45.2 µM (active)
[7]
  AC50: 6.6 µM (active)
[8]
  IC50: > 100 µM (inactive)
[9]
  IC50: 10.8 µM (active)

## CC(C)(C)OC(=O)CN1C(=O)S/C(=C\c2ccc(-c3cccc(C(=O)O)c3)o2)C1=O
[10]
  EC50: 4.23 µM (active)

## CC(=O)Nc1ccc(/N=C/c2c(O)c(C(=O)Nc3ccccc3)cc3ccccc23)cc1
[11]
  IC50: 50 µM (inactive)
[12]
  IC50: > 20 µM (inactive)
[13]
  AC50: 1.01 µM (active)

## COc1ccc(C(=O)Nc2nnc(-c3ccccc3)o2)cc1OC
[14]
  EC50: > 150 µM (not active)
[15]
  CC50: > 40 µM (active)
[16]
  CC50: > 20 µM (active)
[17]
  EC50: 6.46 µM (active)
[18]
  EC50: > 150 µM (not active)
[19]
  IC50: 17.2 µM (active)

## Oc1ccc(CCNC(=S)Nc2ccc(Cl)cc2Cl)cc1O
[20]
  IC50: 30.5 µM (active)
[21]
  IC50: 18.8 µM (active)
